Assay results: ChEMBL document CHEMBL3817825, “Synthesis and biological evaluation of Schiff base-linked imidazolyl naphthalimides as novel potential anti-MRSA agents” (2016)
In brackets after ≈: the same amount, converted by molar mass.

Experiments:
Staphylococcus aureus [1] = test: Antibacterial activity against methicillin-resistant Staphylococcus aureus N315 after 24 hrs by two fold serial dilution method; format: functional; settings: N315, 24 h
Staphylococcus aureus [2] = test: Antibacterial activity against Staphylococcus aureus ATCC25923 after 24 hrs by two fold serial dilution method; format: functional; settings: ATCC25923, 24 h
Bacillus subtilis [3] = test: Antibacterial activity against Bacillus subtilis ATCC6633 after 24 hrs by two fold serial dilution method; format: functional; settings: ATCC6633, 24 h
Micrococcus luteus = test: Antibacterial activity against Micrococcus luteus ATCC4698 after 24 hrs by two fold serial dilution method; format: functional; settings: ATCC4698, 24 h
Escherichia coli [4] = test: Antibacterial activity against Escherichia coli DH52 after 24 hrs by two fold serial dilution method; format: functional; settings: DH52, 24 h
Escherichia coli [5] = test: Antibacterial activity against Escherichia coli JM109 after 24 hrs by two fold serial dilution method; format: functional; settings: JM109, 24 h
Shigella dysenteriae = test: Antibacterial activity against Shigella dysenteriae after 24 hrs by two fold serial dilution method; format: functional
Pseudomonas aeruginosa = test: Antibacterial activity against Pseudomonas aeruginosa ATCC27853 after 24 hrs by two fold serial dilution method; format: functional; settings: ATCC27853, 24 h
Bacillus = test: Antibacterial activity against Bacillus proteus ATCC13315 after 24 hrs by two fold serial dilution method; format: functional; settings: ATCC13315, 24 h
Salmonella typhi = test: Antibacterial activity against Bacillus typhi after 24 hrs by two fold serial dilution method; format: functional, Salmonella enterica subsp. enterica serovar Typhi; settings: Salmonella enterica
Candida albicans = test: Antifungal activity against Candida albicans ATCC76615 after 24 hrs by two fold serial dilution method; format: functional; settings: ATCC76615, 24 h
Candida = test: Antifungal activity against Candida mycoderma ATCC10231 after 24 hrs by two fold serial dilution method; format: functional; settings: ATCC10231, 24 h
Cyberlindnera jadinii = test: Antifungal activity against Candida utilis ATCC9950 after 24 hrs by two fold serial dilution method; format: functional; settings: Williopsis jadinii, ATCC9950, 24 h
Aspergillus flavus = test: Antifungal activity against Aspergillus flavus ATCC204304 after 24 hrs by two fold serial dilution method; format: functional; settings: ATCC204304, 24 h
Saccharomyces cerevisiae = test: Antifungal activity against Beer yeast ATCC9763 after 24 hrs by two fold serial dilution method; format: functional; settings: ATCC9763, 24 h
Bacillus subtilis [6] = test: Potency index, ratio of chloromycin MIC to compound MIC for Bacillus subtilis ATCC6633; format: functional

CCCCCn1c(CCCC)nc(Cl)c1/C=N/N1C(=O)c2cccc3c(N4CCOCC4)ccc(c23)C1=O
MIC (Staphylococcus aureus [1]): 480 µM (≈ 257 µg/mL) | MIC (Staphylococcus aureus [2]): 240 µM (≈ 129 µg/mL) | MIC (Bacillus subtilis [3]): 240 µM (≈ 129 µg/mL) | MIC (Micrococcus luteus): 240 µM (≈ 129 µg/mL) | MIC (Escherichia coli [4]): 480 µM (≈ 257 µg/mL) | MIC (Escherichia coli [5]): 480 µM (≈ 257 µg/mL) | MIC (Shigella dysenteriae): 0.48 µM (≈ 0.257 µg/mL) | MIC (Pseudomonas aeruginosa): 960 µM (≈ 515 µg/mL) | MIC (Bacillus): 480 µM (≈ 257 µg/mL) | MIC (Salmonella typhi): 0.24 µM (≈ 0.129 µg/mL) | MIC (Candida albicans): 480 µM (≈ 257 µg/mL) | MIC (Candida): 480 µM (≈ 257 µg/mL) | MIC (Cyberlindnera jadinii): 7 µM (≈ 3.75 µg/mL) | MIC (Aspergillus flavus): 480 µM (≈ 257 µg/mL) | MIC (Saccharomyces cerevisiae): 480 µM (≈ 257 µg/mL)

CCCCc1nc(Cl)c(/C=N/N2C(=O)c3cccc4c(N5CCOCC5)ccc(c34)C2=O)n1Cc1ccc(Cl)cc1
MIC (Staphylococcus aureus [1]): 430 µM (≈ 254 µg/mL) | MIC (Staphylococcus aureus [2]): 870 µM (≈ 514 µg/mL) | MIC (Bacillus subtilis [3]): 430 µM (≈ 254 µg/mL) | MIC (Micrococcus luteus): 430 µM (≈ 254 µg/mL) | MIC (Escherichia coli [4]): 430 µM (≈ 254 µg/mL) | MIC (Escherichia coli [5]): 430 µM (≈ 254 µg/mL) | MIC (Shigella dysenteriae): 0.87 µM (≈ 0.514 µg/mL) | MIC (Pseudomonas aeruginosa): 870 µM (≈ 514 µg/mL) | MIC (Bacillus): 430 µM (≈ 254 µg/mL) | MIC (Salmonella typhi): 0.43 µM (≈ 0.254 µg/mL) | MIC (Candida albicans): 430 µM (≈ 254 µg/mL) | MIC (Candida): 430 µM (≈ 254 µg/mL) | MIC (Cyberlindnera jadinii): 220 µM (≈ 130 µg/mL) | MIC (Aspergillus flavus): 870 µM (≈ 514 µg/mL) | MIC (Saccharomyces cerevisiae): 220 µM (≈ 130 µg/mL)

CCCCc1nc(Cl)c(/C=N/N2C(=O)c3cccc4c(N5CCOCC5)ccc(c34)C2=O)n1Cc1ccc(F)cc1
MIC (Staphylococcus aureus [1]): 440 µM (≈ 253 µg/mL) | MIC (Staphylococcus aureus [2]): 890 µM (≈ 511 µg/mL) | MIC (Bacillus subtilis [3]): 440 µM (≈ 253 µg/mL) | MIC (Micrococcus luteus): 440 µM (≈ 253 µg/mL) | MIC (Escherichia coli [4]): 890 µM (≈ 511 µg/mL) | MIC (Escherichia coli [5]): 440 µM (≈ 253 µg/mL) | MIC (Shigella dysenteriae): 0.89 µM (≈ 0.511 µg/mL) | MIC (Pseudomonas aeruginosa): 890 µM (≈ 511 µg/mL) | MIC (Bacillus): 440 µM (≈ 253 µg/mL) | MIC (Salmonella typhi): 0.44 µM (≈ 0.253 µg/mL) | MIC (Candida albicans): 440 µM (≈ 253 µg/mL) | MIC (Candida): 440 µM (≈ 253 µg/mL) | MIC (Cyberlindnera jadinii): 440 µM (≈ 253 µg/mL) | MIC (Aspergillus flavus): 890 µM (≈ 511 µg/mL) | MIC (Saccharomyces cerevisiae): 890 µM (≈ 511 µg/mL)

CCCCc1nc(Cl)c(/C=N/N2C(=O)c3cccc4c(Br)ccc(c34)C2=O)[nH]1
MIC (Staphylococcus aureus [1]): 560 µM (≈ 257 µg/mL) | MIC (Staphylococcus aureus [2]): 1110 µM (≈ 510 µg/mL) | MIC (Bacillus subtilis [3]): 560 µM (≈ 257 µg/mL) | MIC (Micrococcus luteus): 1110 µM (≈ 510 µg/mL) | MIC (Escherichia coli [4]): 1110 µM (≈ 510 µg/mL) | MIC (Escherichia coli [5]): 1110 µM (≈ 510 µg/mL) | MIC (Shigella dysenteriae): 0.56 µM (≈ 0.257 µg/mL) | MIC (Pseudomonas aeruginosa): 560 µM (≈ 257 µg/mL) | MIC (Bacillus): 1110 µM (≈ 510 µg/mL) | MIC (Salmonella typhi): 1.11 µM (≈ 0.51 µg/mL) | MIC (Candida albicans): 1110 µM (≈ 510 µg/mL) | MIC (Candida): 1110 µM (≈ 510 µg/mL) | MIC (Cyberlindnera jadinii): 1110 µM (≈ 510 µg/mL) | MIC (Aspergillus flavus): 1110 µM (≈ 510 µg/mL) | MIC (Saccharomyces cerevisiae): 140 µM (≈ 64.4 µg/mL)

CCCCc1nc(Cl)c(/C=N/N2C(=O)c3cccc4c(N5CCOCC5)ccc(c34)C2=O)n1Cc1ccccc1F
MIC (Staphylococcus aureus [1]): 440 µM (≈ 253 µg/mL) | MIC (Staphylococcus aureus [2]): 220 µM (≈ 126 µg/mL) | MIC (Bacillus subtilis [3]): 440 µM (≈ 253 µg/mL) | MIC (Micrococcus luteus): 220 µM (≈ 126 µg/mL) | MIC (Escherichia coli [4]): 440 µM (≈ 253 µg/mL) | MIC (Escherichia coli [5]): 110 µM (≈ 63.1 µg/mL) | MIC (Shigella dysenteriae): 0.44 µM (≈ 0.253 µg/mL) | MIC (Pseudomonas aeruginosa): 220 µM (≈ 126 µg/mL) | MIC (Bacillus): 440 µM (≈ 253 µg/mL) | MIC (Salmonella typhi): 0.44 µM (≈ 0.253 µg/mL) | MIC (Candida albicans): 440 µM (≈ 253 µg/mL) | MIC (Candida): 440 µM (≈ 253 µg/mL) | MIC (Cyberlindnera jadinii): 440 µM (≈ 253 µg/mL) | MIC (Aspergillus flavus): 440 µM (≈ 253 µg/mL) | MIC (Saccharomyces cerevisiae): 440 µM (≈ 253 µg/mL)

CCCCCCCCn1c(CCCC)nc(Cl)c1/C=N/N1C(=O)c2cccc3c(N4CCOCC4)ccc(c23)C1=O
MIC (Staphylococcus aureus [1]): 440 µM (≈ 254 µg/mL) | MIC (Staphylococcus aureus [2]): 220 µM (≈ 127 µg/mL) | MIC (Bacillus subtilis [3]): 440 µM (≈ 254 µg/mL) | MIC (Micrococcus luteus): 880 µM (≈ 509 µg/mL) | MIC (Escherichia coli [4]): 440 µM (≈ 254 µg/mL) | MIC (Escherichia coli [5]): 220 µM (≈ 127 µg/mL) | MIC (Shigella dysenteriae): 0.88 µM (≈ 0.509 µg/mL) | MIC (Pseudomonas aeruginosa): 880 µM (≈ 509 µg/mL) | MIC (Bacillus): 440 µM (≈ 254 µg/mL) | MIC (Salmonella typhi): 0.44 µM (≈ 0.254 µg/mL) | MIC (Candida albicans): 440 µM (≈ 254 µg/mL) | MIC (Candida): 440 µM (≈ 254 µg/mL) | MIC (Cyberlindnera jadinii): 880 µM (≈ 509 µg/mL) | MIC (Aspergillus flavus): 880 µM (≈ 509 µg/mL) | MIC (Saccharomyces cerevisiae): 880 µM (≈ 509 µg/mL)

CCCCc1nc(Cl)c(/C=N/N2C(=O)c3cccc4c(N5CCOCC5)ccc(c34)C2=O)n1Cc1cccc(Cl)c1
MIC (Staphylococcus aureus [1]): 430 µM (≈ 254 µg/mL) | MIC (Staphylococcus aureus [2]): 430 µM (≈ 254 µg/mL) | MIC (Bacillus subtilis [3]): 7 µM (≈ 4.13 µg/mL) | MIC (Micrococcus luteus): 430 µM (≈ 254 µg/mL) | MIC (Escherichia coli [4]): 430 µM (≈ 254 µg/mL) | MIC (Escherichia coli [5]): 430 µM (≈ 254 µg/mL) | MIC (Shigella dysenteriae): 0.11 µM (≈ 0.065 µg/mL) | MIC (Pseudomonas aeruginosa): 430 µM (≈ 254 µg/mL) | MIC (Bacillus): 220 µM (≈ 130 µg/mL) | MIC (Salmonella typhi): 0.43 µM (≈ 0.254 µg/mL) | MIC (Candida albicans): 430 µM (≈ 254 µg/mL) | MIC (Candida): 430 µM (≈ 254 µg/mL) | MIC (Cyberlindnera jadinii): 220 µM (≈ 130 µg/mL) | MIC (Aspergillus flavus): 430 µM (≈ 254 µg/mL) | MIC (Saccharomyces cerevisiae): 220 µM (≈ 130 µg/mL) | Ratio (Bacillus subtilis [6]): 14

CCCCc1nc(Cl)c(/C=N/N2C(=O)c3cccc4c(N5CCCCC5)ccc(c34)C2=O)[nH]1
MIC (Staphylococcus aureus [1]): 280 µM (≈ 130 µg/mL) | MIC (Staphylococcus aureus [2]): 280 µM (≈ 130 µg/mL) | MIC (Bacillus subtilis [3]): 280 µM (≈ 130 µg/mL) | MIC (Micrococcus luteus): 280 µM (≈ 130 µg/mL) | MIC (Escherichia coli [4]): 560 µM (≈ 260 µg/mL) | MIC (Escherichia coli [5]): 560 µM (≈ 260 µg/mL) | MIC (Shigella dysenteriae): 0.28 µM (≈ 0.13 µg/mL) | MIC (Pseudomonas aeruginosa): 560 µM (≈ 260 µg/mL) | MIC (Bacillus): 560 µM (≈ 260 µg/mL) | MIC (Salmonella typhi): 0.56 µM (≈ 0.26 µg/mL) | MIC (Candida albicans): 140 µM (≈ 65 µg/mL) | MIC (Candida): 550 µM (≈ 255 µg/mL) | MIC (Cyberlindnera jadinii): 280 µM (≈ 130 µg/mL) | MIC (Aspergillus flavus): 550 µM (≈ 255 µg/mL) | MIC (Saccharomyces cerevisiae): 550 µM (≈ 255 µg/mL)

CCn1cc(C(=O)O)c(=O)c2cc(F)c(N3CCNCC3)cc21 [NORFLOXACIN]
MIC (Staphylococcus aureus [1]): 20 µM (≈ 6.39 µg/mL) | MIC (Staphylococcus aureus [2]): 6 µM (≈ 1.92 µg/mL) | MIC (Bacillus subtilis [3]): 10 µM (≈ 3.19 µg/mL) | MIC (Micrococcus luteus): 6 µM (≈ 1.92 µg/mL) | MIC (Escherichia coli [4]): 3 µM (≈ 0.958 µg/mL) | MIC (Escherichia coli [5]): 3 µM (≈ 0.958 µg/mL) | MIC (Shigella dysenteriae): 0.05 µM (≈ 0.016 µg/mL) | MIC (Pseudomonas aeruginosa): 50 µM (≈ 16 µg/mL) | MIC (Bacillus): 20 µM (≈ 6.39 µg/mL)

CCCCCCCn1c(CCCC)nc(Cl)c1/C=N/N1C(=O)c2cccc3c(N4CCOCC4)ccc(c23)C1=O
MIC (Staphylococcus aureus [1]): 450 µM (≈ 254 µg/mL) | MIC (Staphylococcus aureus [2]): 450 µM (≈ 254 µg/mL) | MIC (Bacillus subtilis [3]): 450 µM (≈ 254 µg/mL) | MIC (Micrococcus luteus): 450 µM (≈ 254 µg/mL) | MIC (Escherichia coli [4]): 450 µM (≈ 254 µg/mL) | MIC (Escherichia coli [5]): 450 µM (≈ 254 µg/mL) | MIC (Shigella dysenteriae): 0.91 µM (≈ 0.513 µg/mL) | MIC (Pseudomonas aeruginosa): 450 µM (≈ 254 µg/mL) | MIC (Bacillus): 450 µM (≈ 254 µg/mL) | MIC (Salmonella typhi): 0.45 µM (≈ 0.254 µg/mL) | MIC (Candida albicans): 230 µM (≈ 130 µg/mL) | MIC (Candida): 450 µM (≈ 254 µg/mL) | MIC (Cyberlindnera jadinii): 450 µM (≈ 254 µg/mL) | MIC (Aspergillus flavus): 450 µM (≈ 254 µg/mL) | MIC (Saccharomyces cerevisiae): 450 µM (≈ 254 µg/mL)
